Source: US10669283B2, “Compound and pharmacologically acceptable salt thereof” (MEIJI SEIKA PHARMA CO., LTD., priority 2016, dated 2020)
Like-named read-outs stand apart in the source and are kept apart here.

System: PDE4
Experiment: PDE4 inhibition, scintillation proximity assay (SPA);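 as to PDE4 Inhibitory Activity (concentration for the inhibition rate of 50%): A below 100 nM B 100 to below 1000 nM C 1000 nM or more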
Assay type: biochemical
Experimental: The PDE4 inhibitory activity was measured using scintillation proximity assay (SPA) as follows. A sample compound dissolved in dimethyl sulfoxide was diluted 1:10 in reaction buffer solution which contained 50 mM of Tris-HCl with pH 7.4, 8.3 mM of MgCl2, 1.7 mM of EGTA, and 3 mg/mL of bovine serum albumin (BSA). Then, 10 μL of the diluted solution was added in a 96-well assay plate. Moreover, 50 μL of PDE4 diluted 1:375 in the reaction buffer solution was added, and then 40 μL of [2,8-^3H]-adenosine-3′,5′-cyclic phosphate triethylammonium salt diluted 1:1000 in the reaction buffer solution was added. The mixture was allowed to stand at room temperature for 120 minutes. Thereafter, […] of RNA binding YSi-SPA beads suspension containing ZnSO4 was added and the mixture was allowed to stand at room temperature for 15 minutes, followed by adsorption of the enzyme reaction product to the beads. After that, the radioactivity was measured using a liquid scintillation counter for a 96-well plate. The mixture without the enzyme preparation added but only the reaction buffer solution added is a blank, and the mixture with the enzyme preparation added and only dimethyl sulfoxide added instead of the sample solution is a control.

[1] = scintillation proximity assay (SPA), evaluated as classes A, B, C, read-out: PDE4 Inhibitory Activity (concentration for the inhibition rate of 50%)

SMILES | IC50 [1] [nM] | IC50 (scintillation proximity assay, class symbols, read-out: PDE4 Inhibitory Activity) [nM]
CC(O)C(F)(F)OC(c1ccc(-c2nccs2)c2oc(N3CC4CC(C3)N4)nc12)C(F)(F)F (stereo not drawn) [Example 265, 1-(1-(2-(3,6-Diazabicyclo[3.1.1]heptan-3-yl)-7-(thiazol-2-yl)benzo[d]oxazol-4-yl)-2,2,2-trifluoroethoxy)-1,1-difluoropropan-2-ol] | < 100 | 
OCC(F)(F)OC(c1ccc(-c2nccs2)c2oc(N3CC4CC(C3)N4)nc12)C(F)(F)F (stereo not drawn) [Example 258, 2-(1-(2-(3,6-Diazabicyclo[3.1.1]heptan-3-yl)-7-(thiazol-2-yl)benzo[d]oxazol-4-yl)-2,2,2-trifluoroethoxy)-2,2-difluoroethan-1-ol] | < 100 | 
CCOC(=O)c1cc(-c2nccs2)c2oc(N3CC4CCCC(C3)N4)nc2c1 [Example 89, Ethyl 2-(3,9-diazabicyclo[3.3.1]nonan-3-yl)-7-(thiazol-2-yl) benzo[d]oxazole-5-carboxylate] | < 100 | 
COC(C)(c1ccc(-c2nccs2)c2oc(N3CC4CC(C3)N4)nc12)C(F)(F)F (stereo not drawn) [Example 235, 2-(3,6-Diazabicyclo[3.1.1]heptan-3-yl)-7-(thiazol-2-yl)-4-(1,1,1-trifluoro-2-methoxypropan-2-yl)benzo[d]oxazole] | < 100 | 
COC(C)(C)c1cc(-c2cscn2)c2oc(N3CC4CCC(C3)N4)nc2c1OC(F)(F)F [Example 298, 2-(3,8-Diazabicyclo[3.2.1]octan-3-yl)-5-(2-methoxypropan-2-yl)-7-(thiazol-4-yl)-4-(trifluoromethoxy)benzo[d]oxazole] | < 100 | 
FC(F)(F)COC(c1ccc(-c2nccs2)c2oc(N3CC4CC(C3)N4)nc12)C(F)(F)F (stereo not drawn) [Example 223, 2-(3,6-Diazabicyclo[3.1.1]heptan-3-yl)-7-(thiazol-2-yl)-4-(2,2,2-trifluoro-1-(2,2,2-trifluoroethoxy)ethyl)benzo[d]oxazole] | < 100 | 
FC(F)(F)c1c(Cl)cc(-n2cccn2)c2oc(N3CC4CCC(C3)N4)nc12 [Example 15, 2-(3,8-Diazabicyclo[3.2.1]octan-3-yl)-5-chloro-7-(1H-pyrazol-1-yl)-4-(trifluoromethyl)benzo[d]oxazole] | < 100 | 
CCOC(=O)c1ccc(-c2nccs2)c2oc(N3CC4CC(C3)N4)nc12 [Example 113, Ethyl 2-(3,6-diazabicyclo[3.1.1]heptan-3-yl)-7-(thiazol-2-yl)benzo[d]oxazole-4-carboxylate] | < 100 | 
OC1(c2cc(-c3cscn3)c3oc(N4CC5CC(C4)N5)nc3c2OC(F)(F)F)CC1 [Example 299, 1-(2-(3,6-Diazabicyclo[3.1.1]heptan-3-yl)-7-(thiazol-4-yl)-4-(trifluoromethoxy)benzo[d]oxazol-5-yl)cyclopropan-1-ol] | < 100 | 
OC(c1ccc(-c2nccs2)c2oc(N3CC4CC(C3)N4)nc12)C(F)(F)F (stereo not drawn) [Example 120, 1-(2-(3,6-Diazabicyclo[3.1.1]heptan-3-yl)-7-(thiazol-2-yl)benzo[d]oxazol-4-yl)-2,2,2-trifluoroethan-1-ol] | < 100 | 
COC1(c2cc(-c3nccs3)c3oc(N4CC5CC(C4)N5)nc3c2OC(F)(F)F)CC1 [Example 283, 2-(3,6-Diazabicyclo[3.1.1]heptan-3-yl)-5-(1-methoxycyclopropyl)-7-(thiazol-2-yl)-4-(trifluoromethoxy)benzo[d]oxazole] | < 100 | 
N#CCOC(c1ccc(-c2nccs2)c2oc(N3CC4CC(C3)N4)nc12)C(F)(F)F (stereo not drawn) [Example 226, 2-(1-(2-(3,6-Diazabicyclo[3.1.1]heptan-3-yl)-7-(thiazol-2-yl)benzo[d]oxazol-4-yl)-2,2,2-trifluoroethoxy)acetonitrile] | < 100 | 
COC(C)(c1cc(-c2nccs2)c2oc(N3CC4CC(C3)N4)nc2c1)C(F)(F)F (stereo not drawn) [Example 103, 2-(3,6-Diazabicyclo[3.1.1]heptan-3-yl)-7-(thiazol-2-yl)-5-(1,1,1-trifluoro-2-methoxypropan-2-yl)benzo[d]oxazole] | < 100 | 
CC(C)(O)C(F)(F)Oc1ccc(-c2cscn2)c2oc(N3CC4CC(C3)N4)nc12 [Example 307, 1-((2-(3,6-Diazabicyclo[3.1.1]heptan-3-yl)-7-(thiazol-4-yl)benzo[d]oxazol-4-yl)oxy)-1,1-difluoro-2-methylpropan-2-ol] | < 100 | 
N#CCOC(c1cc(-c2nccs2)c2oc(N3CC4CCC(C3)N4)nc2c1)C(F)(F)F (stereo not drawn) [Example 153, 2-(1-(2-(3,8-Diazabicyclo[3.2.1]octan-3-yl)-7-(thiazol-2-yl)benzo[d]oxazol-5-yl)-2,2,2-trifluoroethoxy)acetonitrile] | < 100 | 
COC(=O)c1ccc(-c2nccs2)c2oc(N3CC4CCC(C3)N4)nc12 [Example 237, Methyl 2-(3,8-diazabicyclo[3.2.1]octan-3-yl)-7-(thiazol-2-yl) benzo[d]oxazole-4-carboxylate] | < 100 | 
COC(C)(c1cc(-c2nccs2)c2oc(N3CC4CCCC(C3)N4)nc2c1)C(F)(F)F (stereo not drawn) [Example 162] | < 100 | 

SMILES | IC50 [1] [nM] | IC50 (scintillation proximity assay, class symbols, read-out: PDE4 Inhibitory Activity) [nM]
OC(c1cc(-c2nccs2)c2oc(N3CC4CC(C3)N4)nc2c1OC(F)(F)F)C(F)F (stereo not drawn) [Example 293, 1-(2-(3,6-Diazabicyclo[3.1.1]heptan-3-yl)-7-(thiazol-2-yl)-4-(trifluoromethoxy)benzo[d]oxazol-5-yl)-2,2-difluoroethan-1-ol] | < 100 | 
CCOC(=O)c1cc(-c2nccs2)c2oc(N3CC4CCC(C3)N4)nc2c1 [Example 86, Ethyl 2-(3,8-diazabicyclo[3.2.1]octan-3-yl)-7-(thiazol-2-yl) benzo[d]oxazole-5-carboxylate] | < 100 | 
CCOC(=O)c1cc(-c2nccs2)c2oc(N3CC4CCCC(C3)N4)nc2c1OC(F)(F)F [Example 188, Ethyl 2-(3,9-diazabicyclo[3.3.1]nonan-3-yl)-7-(thiazol-2-yl)-4-(trifluoromethoxy)benzo[d]oxazole-5-carboxylate] | < 100 | 
CCOC(=O)c1cc(-n2cccn2)c2oc(N3CC4CCC(C3)N4)nc2c1 [Example 90, Ethyl 2-(3,8-diazabicyclo[3.2.1]octan-3-yl)-7-(1H-pyrazol-1-yl)benzo[d]oxazole-5-carboxylate] | 100 to 1000 | 
OC(O)(c1ccc(-c2nccs2)c2oc(N3CC4CCC(C3)N4)nc12)C(F)(F)F [Example 233, 1-(2-(3,8-Diazabicyclo[3.2.1]octan-3-yl)-7-(thiazol-2-yl)benzo[d]oxazol-4-yl)-2,2,2-trifluoroethane-1,1-diol] | < 100 | 
CCOC(=O)c1cc(-c2nccs2)c2oc(N3CC4CC(C3)N4)nc2c1 [Example 87, Ethyl 2-(3,6-diazabicyclo[3.1.1]heptan-3-yl)-7-(thiazol-2-yl)benzo[d]oxazole-5-carboxylate] | < 100 | 
COc1ccc(-c2nccs2)c2oc(N3CC4CC(C3)N4)nc12 [Example 76, 2-(3,6-Diazabicyclo[3.1.1]heptan-3-yl)-4-methoxy-7-(thiazol-2-yl)benzo[d]oxazole] | < 100 | 
CC(=O)c1cc(-c2nccs2)c2oc(N3CC4CCC(C3)N4)nc2c1C(F)(F)F [Example 179, 1-(2-(3,8-Diazabicyclo[3.2.1]octan-3-yl)-7-(thiazol-2-yl)-4-(trifluoromethyl)benzo[d]oxazol-5-yl)ethan-1-one] | < 100 | 
CC(C)(O)c1cc(-c2nccs2)c2oc(N3CC4CCCC(C3)N4)nc2c1OC(F)(F)F [Example 197, 2-(2-(3,9-Diazabicyclo[3.3.1]nonan-3-yl)-7-(thiazol-2-yl)-4-(trifluoromethoxy)benzo[d]oxazol-5-yl)propan-2-ol] | < 100 | 
FC(F)(F)c1ccc(-c2nccs2)c2oc(N3CC4CCCC(C3)N4)nc12 [Example 33, 2-(3,9-Diazabicyclo[3.3.1]nonan-3-yl)-7-(thiazol-2-yl)-4-(trifluoromethyl)benzo[d]oxazole] | < 100 | 
Clc1ccc(-c2nccs2)c2oc(N3CC4CCC(C3)N4)nc12 [Example 36, 2-(3,8-Diazabicyclo[3.2.1]octan-3-yl)-4-chloro-7-(thiazol-2-yl)benzo[d]oxazole] | < 100 | 
O=C(O)c1cc(-c2nccs2)c2oc(N3CC4CCC(C3)N4)nc2c1OC(F)(F)F [Example 189, 2-(3,8-Diazabicyclo[3.2.1]octan-3-yl)-7-(thiazol-2-yl)-4-(trifluoromethoxy)benzo[d]oxazole-5-carboxylic acid] | 100 to 1000 | 
NS(=O)(=O)c1ccc(-c2nccs2)c2oc(N3CC4CC(C3)N4)nc12 [Example 396, 2-(3,6-diazabicyclo[3.1.1]heptan-3-yl)-7-(thiazol-2-yl) benzo[d]oxazole-4-sulfonamide] |  | < 100
COC(C)c1cc(-c2nccs2)c2oc(N3CC4CCC(C3)N4)nc2c1C(F)(F)F (stereo not drawn) [Example 184, 2-(3,8-Diazabicyclo[3.2.1]octan-3-yl)-5-(1-methoxyethyl)-7-(thiazol-2-yl)-4-(trifluoromethyl)benzo[d]oxazole] | < 100 | 
COC(C)c1cc(-c2nccs2)c2oc(N3CC4CC(C3)N4)nc2c1OC(F)(F)F (stereo not drawn) [Example 211, 2-(3,6-Diazabicyclo[3.1.1]heptan-3-yl)-5-(1-methoxyethyl)-7-(thiazol-2-yl)-4-(trifluoromethoxy)benzo[d]oxazole] | < 100 | 
CCOC(c1cc(-c2nccs2)c2oc(N3CC4CC(C3)N4)nc2c1)C(F)(F)F (stereo not drawn) [Example 150, 2-(3,6-Diazabicyclo[3.1.1]heptan-3-yl)-5-(1-ethoxy-2,2,2-trifluoroethyl)-7-(thiazol-2-yl)benzo[d]oxazole] | < 100 | 
